Assay [1] relates to planktonic or sessile SRB. Kind of assay: SRB growth in the culture medium with MIC promoter. Format: cell-based, Desulfovibrio desulfuricans (ATCC 7757). The settings on record: culture medium used in this work; repeated experiments. The text has this: Second, the BCSR theory points to the existence of “MIC promoters.” Guided by this, we have successfully found a class of chemicals that can greatly accelerate BCSR leading to much more severe MIC pitting. […] This discovery leads to a new aspect of MIC monitoring, and a non-biocidal mitigation method that may even allow us to live with corrosive microbes with much reduced MIC pitting when the promoter's MIC acceleration effect is inhibited.
(§1) The BCSR theory indicates a bottleneck in MIC due to SRB. To resolve the bottleneck, an electron carrier or mediator was added as an MIC “promoter” into 100 ml anaerobic vials containing SRB and carbon steel coupons. This MIC promoter is not corrosive by itself. After a week of SRB growth, coupons were examined using SEM and IFM (Infinite Focus Microscopy). Desulfovibrio desulfuricans ATCC7757 was used to represent SRB in this work. […] Liquid medium was deoxygenated using nitrogen sparging. To study the pits on a carbon steel coupon, the coupon surface was cleaned using an acid solution before SEM and IFM.

Assay [2] has as its system Desulfovibrio desulfuricans ATCC7757 (SRB) on carbon steel coupons. Kind of assay: MIC pitting test: SRB with carbon steel coupons in anaerobic vials, pits examined by SEM and IFM. It is filed as cell-based, Desulfovibrio desulfuricans (ATCC 7757). The settings on record: promoter added to the test medium at a low concentration; C1018 carbon steel coupon, ATCC 1249 medium, 37° C., 7 days; versus no promoter (FIG. 2). Here is the method:
Y-axis is pit depth in microns and x-axis pit position in microns.
as §1

The record followed here is patent publication US20130008801A1, “METHODS AND COMPOSITIONS FOR APPLICATIONS RELATED TO MICROBIOLOGICALLY INFLUENCED CORROSION” (priority 2010, published 2013).

Take `Cc1cc2nc3c(=O)[nH]c(=O)nc-3n(C[C@H](O)[C@H](O)[C@H](O)CO)c2cc1C` [riboflavin]: the “planktonic or sessile SRB growth” value in assay [1] is reported as “did not promote planktonic or sessile SRB growth”. The MIC pit depth entry in assay [2] is “dramatic MIC pit depth increase”.
